For series [1], the system named is Apis mellifera. The settings on record: acute, mortality.
The subject of series [2] is Bird.
For series [3], the system named is Daphnia magna. As to conditions: chronic/long-term; duration: 21 days.
For series [4], the system named is Oncorhynchus mykiss.
Series [5] deals with Orius insidiosus. The settings on record: acute, duration: 7 days.
In series [6] the test system is Rattus norvegicus. As to conditions: oral; for NOAEL: diet, neurology.
The test system of series [7] is Tagia sp. The settings on record: mortality.

Converted amounts (≈) assume the structure as drawn.

As for `COP(=S)(OC)Oc1ccc([N+](=O)[O-])c(C)c1` [Fenitrothion], the LD50 in series [1] (dermal) is 0.16 µg/piece; in series [1] (oral, unspecified), 0.2 µg/piece; in series [2] (acute, oral, unspecified, mortality), 2.3 mg/kg-day; in series [6] (acute, mortality) it was 330 mg/kg-day. Further, the NOEC in series [2] (reproductive) was found to be 2.34 mg/kg; in series [3] it was 0.087 µg/L; in series [4] (chronic/long-term, duration: 96 days) it was 0.088 mg/L; in series [7] (chronic/long-term), 2.5 mg/kg. In addition, the LC50 in series [2] (short-term, oral, feed, mortality) was 23 mg/kg; in series [4] (acute, duration: 96 hours, mortality) it was 1.3 µg/mL (≈ 4.69 µM); in series [7] (acute) it was 231 mg/kg. Besides, the LEL in series [5] (mortality) and in series [5] (reproduction) was 715 g/ha throughout. The NOAEL in series [6] (chronic, duration: 2 years) turned out to be 0.5 mg/kg-day; in series [6] (subchronic, duration: 90 days), 1.32 mg/kg-day.

The values above are taken from EPA's ToxValDB 9.5 (doi:10.2903/j.efsa.2006.59r).
